Experiments:
[1] = biological target: ATM(h) (Homo sapiens (Human), UniProt Q13315); assay: ATM activity, […] KINASEPROFILER; type: biochemical; details: estimated IC50
From the text: Estimated IC50 values are as follows (obtained using […] KINASEPROFILER): […]

[2] = pKa; type: physicochemical; details: method not stated
[3] = biological target: ATR/ATRIP(h) (Homo sapiens (Human), UniProt Q13535); assay: Eurofins ATR/ATRIP HTRF assay, p53 Ser15 phosphorylation; type: biochemical; set-up: key to Top / Bottom: % of DMSO positive control activity; details: ATP 10 μM; for Hill: four parameter logistic fit; for Bottom / Top: four parameter logistic fit of % control activity
Experimental: An EC50 determination was conducted for the supplied set of compounds against the kinase ATR/ATRIP(h), using a linear enzyme concentration in the Eurofins ATR/ATRIP HTRF assay using GST tagged full length p53 as the substrate.
ATR/ATRIP phosphorylation of p53 on Ser15 was measured via formation of an energy transfer complex consisting of a Europium-labelled anti-phospho Ser15 p53 antibody and an anti-GST-d2 antibody. All data points were performed in duplicate with DMSO controls and EDTA blanks.
ATR/ATRIP(h) was pre-diluted in 25 mM HEPES pH 8.0, 0.01% Brij-35, 1% Glycerol, 5 mM DTT, 1 mg/mL BSA and assayed in 25 mM HEPES pH 8.0, 0.01% Brij-35, 1% Glycerol, 10 mM MnCl2 using 30 nM GST, cMyc p53-(hu,FL) as the substrate. The reaction was initiated with the addition of ATP to a final concentration of 10 μM.
The individual replicates were expressed in terms of the % of the DMSO positive control activity. The mean activity (% control) of each inhibitor concentration was plotted against the inhibitor concentration, and EC50 values were determined using […] PRISM.
The data expressed as % control activity were plotted against inhibitor concentration, and fitted to a four parameter logistic using […] PRISM. Graphs for each compound are shown alongside the data in the accompanying Excel report.

[4] = Loading of ATR inhibitors into TEA-SOS liposomes and liposome characterization; type: physicochemical; details: for Loading efficiency (%) / Drug/lipid ratio after loading: TEA-SOS liposomes; for Loading efficiency (%): Compound 1 at ratio before loading 379; for Drug/lipid ratio after loading: input ratio before loading (Compound 1: 379); for Liposome size, (mean ± SD) nm: liposomes loaded with the ATR inhibitor
Experimental: Sodium sucrose octasulfate (equivalent weight 144.8) is a sodium salt of sucrose derivate in which all hydroxyl groups have formed sulfuric acid esters. Sixty gram of sucrose octasulfate (SOS) sodium salt were dissolved in 150 ml of di water, heated with shaking (swirling) of a 50° C. water bath. The solution was passed through a column packed with sulfonated polystyrene divinylbenzene copolymer cation exchange resin beads (Dowex 50Wx8-100-200 mesh, Dow Chemical Co.). […] The eluent was monitored using a conductivity detector. The SOS fraction was collected corresponding to conductivity peak and immediately titrated with neat triethylamine (TEA) solution to pH 6-6.5. The solution was analyzed for residual sodium by potentiometry using a sodium-sensitive electrode and for SOS concentration using a refractometer. The solution having residual sodium less than 0.25% was diluted with di water to final SOS concentration 1.1 M and then sterile-filtered using Millipore 0.22 μm Steri-Top filter.
Cholesterol (Chol) was purchased from Avanti Polar Lipids, Alabaster, Ala., USA, hydrogenated soy phosphocholine (HSPC) and methoxy-poly(ethylene glycol)-1,2-distearoyl-sn-glyceryl (PEG2000-DSG) were obtained from Lipoid GmbH, Ludwigshafen, Germany.
Chol, HSPC and PEG2000-DSG were co-dissolved in 100% ethanol (200-proof, Sigma cat #: 459828) at a molar ratio of 3:2:0.15 at 65° C. The solution of TEA-SOS (10 times the volume of added ethanol) was mixed with the lipid solution at 60-65° C. and stirred at this temperature until a homogeneous milky suspension of multilamellar vesicles was formed. This suspension was extruded 3 times through 5 stacked polycarbonate track-etched filters (Corning Nuclepore) with the pore size of 100 nm using argon pressure extruder (Lipex Biomembranes) at 60-65° C., and resulting unilamellar liposomes were quickly chilled in ice and then stored at 4-6° C. before use. Concentration of phospholipids was measured by phosphate assay and particle diameter was recorded on a Malvern Nanosizer.
Prior to drug loading, the TEA-SOS gradient was created by removing excess of un-trapped TEA-SOS using gel-chromatography (Sepharose CL-4B, Pharmacia). Osmolarity of liposomes was balanced using 50% dextrose solution. Final dextrose concentration was 15%.
ATR inhibitors were dissolved in 15% dextrose solutions in di water by titration with 1 M HCl and heating at 45° C. and then filtered with 0.2 micron NALGENE 13 mm Syringe Filters. Drug concentration in the solution was detected by HPLC. […]
The liposome-drug mixture was incubated with occasional agitation for 30 minutes at 65° C. The incubation mixture was quickly cooled down and incubated for 10 minutes at 0° C., then allowed to attain ambient temperature. Un-encapsulated drug was removed by gel chromatography on Sephadex G-25 (Amersham Pharmacia) eluted with HBS-6.5 buffer (5 mM 2-(4-(2-hydroxyethyl)-piperazino)-ethylsulfonic acid (HEPES), 144 mM NaCl, pH 6.5). Liposome fractions eluted in the void volume were combined, sterilized by 0.2 micron filtration, and stored at 4-6° C. before use. The liposomes were characterized by lipid concentration, drug concentration, and particle size (Table 2).

[5] = test system: U2OS cells; assay: Cell death and growth assay, U2OS cells; type: cell-based
Experimental: U20S and all other cells were grown in (RPMI) supplemented with 10% fetal bovine serum (FBS) and antibiotics. Imaging and time-lapse compatible NucLight red cell lines were generated as recommend by Essen Bioscience Inc. using lentiviral particles, infection and puromycin selection protocols.
The results were compared back to a prediction of cell growth and death with the combination of the two compounds (FIG. 18A).
In all cases, relative cell proliferation is reduced with the combinations compared to the drugs alone (FIG. 21B-C).

[6] = test system: total and phospho-ATR (S428), phospho-CHK1 (S317 and S345) in DMS-114 cells; assay: Western blot of total and phospho-ATR, phospho-CHK1 in DMS-114 cells; type: cell-based
Experimental: Whole cell protein lysates were generated after 1, 3, 6 and 24 hours using a 2% SDS containing cell lysis buffer and stored at −80° C. until all samples were collected and run together at the same time for the WesternBlot analysis. The following proteins and phosphoproteins of interest were detected by antibodies purchased from Cell Signaling Technology (see methods and materials part below): total and phospho-ATR (S428), phospho-CHK1 (S317 and S345), γH2AX, beta-actin.
All target and phospho-specific antibodies were purchased from Cell Signaling and/or Epitomics and were used at 1:1000 dilutions. A list of all antibodies is available in Table 6. Standard antibody based Western blot and immunohistochemistry protocols were used. Briefly, 2% SDS based cell lysis buffer was used to collect whole cell lysate for Western Blotting. Secondary antibodies and staining protocols were purchased and followed regarding LiCor Biosciences and/or BD Bioscience.
Cells were grown and treated in a 6 cm dish scale. To harvest cells, medium was removed and quickly replaced by ice cold PBS. PBS was then replaced with 250 μL of 2% SDS lysis buffer. After five minutes of incubation, the lysed cells were scraped off and loaded onto a cell lysate homogenizer microcentrifuge spin-column (QIAshredder, Qiagen, Cat.-Nr. 79656). The filtrate was then loaded onto a 0.2 μm centrifugal filter column (Nanosep MF 0.2_m, Pall, Cat.-Nr. ODM02C34). The lysates were then stored at −80° C.

[7] = test system: SUM149 cells; assay: Cell cycle stage profile, SUM149 cells; type: cell-based; details: 24 hours after addition of SN38 and ATR inhibitor
[8] = test system: NCI-H520 cells; assay: Cell number over time, NCI-H520 cells; type: cell-based; details: 1 μM in combination with SN38 0.2 μM
[9] = test system: NCI-H596 cells; assay: Cell number over time, NCI-H596 cells; type: cell-based; details: 1 μM in combination with SN38 0.2 μM
[10] = test system: MS-751 cells; assay: In vitro growth assay, MS-751 cells; type: cell-based; details: in combination with SN38

Chain of ATM(h) (Q13315 whole entry): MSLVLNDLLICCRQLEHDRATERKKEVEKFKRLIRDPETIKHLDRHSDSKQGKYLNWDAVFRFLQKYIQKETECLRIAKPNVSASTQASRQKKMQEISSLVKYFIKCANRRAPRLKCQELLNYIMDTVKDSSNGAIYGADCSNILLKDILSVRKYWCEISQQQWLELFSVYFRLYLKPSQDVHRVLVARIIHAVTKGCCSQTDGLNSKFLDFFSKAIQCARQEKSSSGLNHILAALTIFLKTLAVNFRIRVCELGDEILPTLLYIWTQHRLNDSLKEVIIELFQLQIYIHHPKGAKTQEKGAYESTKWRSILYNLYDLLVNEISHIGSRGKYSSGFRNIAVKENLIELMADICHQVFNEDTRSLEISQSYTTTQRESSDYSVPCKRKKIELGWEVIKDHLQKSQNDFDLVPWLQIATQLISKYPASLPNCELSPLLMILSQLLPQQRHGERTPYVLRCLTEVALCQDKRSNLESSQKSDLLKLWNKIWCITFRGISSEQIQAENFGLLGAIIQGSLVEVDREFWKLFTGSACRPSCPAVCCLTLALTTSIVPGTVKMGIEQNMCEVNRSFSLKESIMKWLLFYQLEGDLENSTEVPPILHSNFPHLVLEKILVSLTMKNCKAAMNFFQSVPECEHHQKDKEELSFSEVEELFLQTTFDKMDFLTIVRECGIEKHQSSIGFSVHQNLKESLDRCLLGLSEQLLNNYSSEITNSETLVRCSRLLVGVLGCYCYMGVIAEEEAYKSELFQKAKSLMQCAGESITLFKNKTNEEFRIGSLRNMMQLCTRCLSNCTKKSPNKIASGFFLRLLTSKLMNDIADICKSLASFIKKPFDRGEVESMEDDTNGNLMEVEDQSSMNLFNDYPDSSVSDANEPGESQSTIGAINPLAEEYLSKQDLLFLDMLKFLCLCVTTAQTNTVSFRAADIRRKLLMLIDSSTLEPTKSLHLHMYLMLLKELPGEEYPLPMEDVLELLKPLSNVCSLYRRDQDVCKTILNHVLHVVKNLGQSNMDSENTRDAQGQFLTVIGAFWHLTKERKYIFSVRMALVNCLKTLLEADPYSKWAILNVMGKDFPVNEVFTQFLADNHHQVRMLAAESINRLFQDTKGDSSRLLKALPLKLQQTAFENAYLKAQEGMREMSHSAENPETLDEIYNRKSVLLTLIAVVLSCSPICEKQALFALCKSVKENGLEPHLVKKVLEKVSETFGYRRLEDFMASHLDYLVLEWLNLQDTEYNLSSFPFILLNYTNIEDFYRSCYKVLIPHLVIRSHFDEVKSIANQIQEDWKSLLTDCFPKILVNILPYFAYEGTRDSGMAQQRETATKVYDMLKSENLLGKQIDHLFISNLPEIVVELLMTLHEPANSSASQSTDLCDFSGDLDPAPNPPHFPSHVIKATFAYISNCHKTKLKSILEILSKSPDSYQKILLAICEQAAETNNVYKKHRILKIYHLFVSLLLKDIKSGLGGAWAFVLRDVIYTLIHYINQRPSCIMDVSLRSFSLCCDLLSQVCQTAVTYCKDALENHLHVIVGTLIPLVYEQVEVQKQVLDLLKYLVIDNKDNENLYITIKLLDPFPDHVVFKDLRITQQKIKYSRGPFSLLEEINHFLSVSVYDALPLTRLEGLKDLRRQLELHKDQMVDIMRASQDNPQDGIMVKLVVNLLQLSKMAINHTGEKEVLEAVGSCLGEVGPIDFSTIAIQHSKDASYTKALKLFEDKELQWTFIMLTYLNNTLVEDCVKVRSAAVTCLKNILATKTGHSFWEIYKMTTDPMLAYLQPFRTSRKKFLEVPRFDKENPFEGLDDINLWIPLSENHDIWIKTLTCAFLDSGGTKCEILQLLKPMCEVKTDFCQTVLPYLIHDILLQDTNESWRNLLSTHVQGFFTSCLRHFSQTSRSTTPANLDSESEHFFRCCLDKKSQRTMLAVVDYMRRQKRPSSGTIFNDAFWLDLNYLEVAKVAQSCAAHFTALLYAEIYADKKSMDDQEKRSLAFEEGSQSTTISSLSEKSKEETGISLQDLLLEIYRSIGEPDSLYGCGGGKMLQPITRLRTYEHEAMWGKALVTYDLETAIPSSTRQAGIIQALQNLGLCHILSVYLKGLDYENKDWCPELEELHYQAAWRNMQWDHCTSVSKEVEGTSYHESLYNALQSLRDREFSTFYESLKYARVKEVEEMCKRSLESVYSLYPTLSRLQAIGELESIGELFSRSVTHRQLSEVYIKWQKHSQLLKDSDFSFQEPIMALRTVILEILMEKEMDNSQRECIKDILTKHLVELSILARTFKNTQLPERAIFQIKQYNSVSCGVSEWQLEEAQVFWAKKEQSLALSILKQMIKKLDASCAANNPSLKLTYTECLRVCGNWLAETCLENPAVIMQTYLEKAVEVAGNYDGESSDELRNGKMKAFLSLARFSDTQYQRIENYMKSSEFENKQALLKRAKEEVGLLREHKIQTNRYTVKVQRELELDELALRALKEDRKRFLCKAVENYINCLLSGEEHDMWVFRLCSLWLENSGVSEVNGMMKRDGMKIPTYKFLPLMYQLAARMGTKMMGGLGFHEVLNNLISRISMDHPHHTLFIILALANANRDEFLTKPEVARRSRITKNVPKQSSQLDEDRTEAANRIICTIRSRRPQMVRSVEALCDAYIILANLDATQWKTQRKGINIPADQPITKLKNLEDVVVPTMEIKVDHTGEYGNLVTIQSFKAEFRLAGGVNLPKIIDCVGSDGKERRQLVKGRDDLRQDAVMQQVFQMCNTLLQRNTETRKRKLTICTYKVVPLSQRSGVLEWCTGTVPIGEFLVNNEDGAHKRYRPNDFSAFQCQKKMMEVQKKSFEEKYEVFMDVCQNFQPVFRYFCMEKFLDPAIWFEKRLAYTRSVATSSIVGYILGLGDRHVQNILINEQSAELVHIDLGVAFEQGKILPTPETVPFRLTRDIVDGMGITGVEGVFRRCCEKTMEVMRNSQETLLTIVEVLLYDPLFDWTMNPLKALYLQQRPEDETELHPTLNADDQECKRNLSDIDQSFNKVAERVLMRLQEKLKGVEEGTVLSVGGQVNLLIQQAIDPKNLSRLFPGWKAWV

Structure (SMILES)	IC50 [1]	pKa [2]	EC50 [3]	Hill [3]	Bottom [3]	Top [3]	loading efficacy ([4]; Compound 1: at drug to lipid ratio higher than 400 g/mol)	Loading efficiency (%) [4]	Drug/lipid ratio after loading [4]	Drug/lipid ratio after loading (loadability) ([4]; drug/lipid ratio before loading 600-800)	Liposome size, (mean ± SD) nm [4]	cell numbers over time vs either agent in isolation ([5]; 1 μM in combination with SN38 0.2 μM)	cell death vs either compound alone ([5]; Compound A (1 μM) combined with Gemcitabine (0.04 μM))	phosphorylation signal of CHK1 (S317 and S345) induced by Gemcitabine ([6]; ATR inhibitor 1 μM added to Gemcitabine 16 nM)	total and phospho-ATR signal ([6]; ATR inhibitor 1 μM, alone or with Gemcitabine 16 nM, up to 24 hrs)	cell cycle stage profile vs controls [7]	cell numbers over time vs either agent in isolation [8]	cell numbers over time vs either agent in isolation [9]	cell number over time vs either compound alone [10]	phospho-CHK1 (S317 and S345) signaling ([6]; Gemcitabine 16 nM alone, over 24 hrs)
CN(C)CCNS(=O)(=O)c1ccc(-c2cnc(N)c(C(=O)Nc3ccccc3)n2)cc1 [Compound 4, 3-amino-6-(4-(((2-(dimethylamino)ethyl)-λ^2-azanyl)sulfonyl)phenyl)-N-phenylpyrazine-2-carboxamide]	6.87 µM	8.36	0.353 µM																	
CCN(CC)C1CCN(CCS(=O)(=O)c2ccc(-c3cnc(N)c(C(=O)Nc4ccccc4)n3)cc2)CC1 [Compound 6, 3-amino-6-(4-((2-(4-(diethylamino)piperidin-1 yl)ethyl)sulfonyl)phenyl)-N-phenylpyrazine-2-carboxamide]	> 10 µM	9.81	0.471 µM	−0.768	−2	101		74 ± 0.3%	550 ± 64		119 ± 28 nm									
CNCc1ccc(-c2cc(-c3nc(-c4ccc(S(=O)(=O)C(C)C)cc4)cnc3N)on2)cc1 [Compound A]	0.042 µM										121 ± 26 nm	more effective at maintaining or reducing cell numbers over time	better at promoting cell death	abrogates the phosphorylation signal of CHK1	strongly reduced	larger percentage of cells are arrested in G2 phase	more effective at maintaining or reducing cell numbers over time	more effective at maintaining or reducing cell numbers over time	reduction in cell number over time	
Nc1ccn([C@@H]2O[C@H](CO)[C@@H](O)C2(F)F)c(=O)n1 [Gemcitabine]																				significantly increased

Continued, in another order:

IC50 [1]	pKa [2]	EC50 [3]	Hill [3]	Bottom [3]	Top [3]	loading efficacy ([4]; Compound 1: at drug to lipid ratio higher than 400 g/mol)	Loading efficiency (%) [4]	Drug/lipid ratio after loading [4]	Drug/lipid ratio after loading (loadability) ([4]; drug/lipid ratio before loading 600-800)	Liposome size, (mean ± SD) nm [4]	Structure (SMILES)	cell numbers over time vs either agent in isolation ([5]; 1 μM in combination with SN38 0.2 μM)	cell death vs either compound alone ([5]; Compound A (1 μM) combined with Gemcitabine (0.04 μM))	phosphorylation signal of CHK1 (S317 and S345) induced by Gemcitabine ([6]; ATR inhibitor 1 μM added to Gemcitabine 16 nM)	total and phospho-ATR signal ([6]; ATR inhibitor 1 μM, alone or with Gemcitabine 16 nM, up to 24 hrs)	cell cycle stage profile vs controls [7]	cell numbers over time vs either agent in isolation [8]	cell numbers over time vs either agent in isolation [9]	cell number over time vs either compound alone [10]	phospho-CHK1 (S317 and S345) signaling ([6]; Gemcitabine 16 nM alone, over 24 hrs)
3.86 µM	7.04	0.0496 µM	−0.772	−1	95	formed aggregates	98%	369	Not loadable. Formed aggregates	122 ± 24 nm	CC(CN(C)C)S(=O)(=O)c1ccc(-c2cnc(N)c(C(=O)Nc3ccccc3)n2)cc1 (stereo not shown) [Compound 1, 3-amino-6-(4-((1-(dimethylamino)propan-2-yl)sulfonyl)phenyl)-N-phenylpyrazine-2-carboxamide]									
4.82 µM	7.46	0.14 µM	−0.911	1	94		100 ± 5%	639 ± 22		130 ± 34 nm	CCN(CC)CCS(=O)(=O)c1ccc(-c2cnc(N)c(C(=O)Nc3ccccc3)n2)cc1 [Compound 2, 3-amino-6-(4-((2-(diethylamino)ethyl)sulfonyl)phenyl)-N phenylpyrazine-2-carboxamide]									
> 10 µM	7.73	0.196 µM	−0.776	−3	98		97 ± 5%	628 ± 6		120 ± 27 nm	CN1CCN(CCS(=O)(=O)c2ccc(-c3cnc(N)c(C(=O)Nc4ccccc4)n3)cc2)CC1 [Compound 3, 3-amino-6-(4-((2-(4-methylpiperazin-1-yl)ethyl)sulfonyl)phenyl)-N-phenylpyrazine-2-carboxamide]									

Reference: US11787781B2, “Inhibiting ataxia telangiectasia and RAD3-related protein (ATR)” (Celator Pharmaceuticals, Inc., priority 2016, dated 2023)
